Test results reported in the CheMixHub viscosity set.

Test: xn = mol fraction of the nth substance listed

CCNc1ccccc1 + CCCCOCCO
viscosity [mPa·s], 101.3 kPa
Conditions | x2 = 0.1017 | x2 = 0.2027 | x2 = 0.3026 | x2 = 0.398 | x2 = 0.5004 | x2 = 0.5947 | x2 = 0.701 | x2 = 0.7971 | x2 = 0.8933
298 K | 2.077 | 2.172 | 2.259 | 2.361 | 2.486 | 2.573 | 2.686 | 2.758 | 2.786
303 K | 1.774 | 1.855 | 1.929 | 2.039 | 2.14 | 2.214 | 2.313 | 2.38 | 2.404
308 K | 1.59 | 1.662 | 1.725 | 1.801 | 1.889 | 1.961 | 2.048 | 2.111 | 2.145
313 K | 1.43 | 1.498 | 1.537 | 1.615 | 1.693 | 1.746 | 1.824 | 1.883 | 1.91
318 K | 1.298 | 1.358 | 1.383 | 1.443 | 1.51 | 1.552 | 1.616 | 1.674 | 1.696

ClCCl + COc1ccccc1
303.15 K, 101.3 kPa
Conditions | viscosity [mPa·s]
x2 = 0.069 | 0.425
x2 = 0.321 | 0.527
x2 = 0.357 | 0.54
x2 = 0.4045 | 0.567
x2 = 0.6109 | 0.665
x2 = 0.658 | 0.688
x2 = 0.8807 | 0.82

O=S(=O)(O)O + O=[N+]([O-])c1ccccc1
303.15 K, 101 kPa
Conditions | viscosity [mPa·s]
x1 = 0.2497 | 3.5
x1 = 0.4023 | 5.75
x1 = 0.562 | 9.38
x1 = 0.656 | 12.28
x1 = 0.6792 | 12.94
x1 = 0.7132 | 13.56
x1 = 0.796 | 16.17
x1 = 0.8755 | 18.31
x1 = 0.9516 | 18.96
x1 = 0.9542 | 18.56
x1 = 0.9702 | 19.68
x2 = 0.0128 | 19.92

CCNc1ccccc1 + Brc1ccccc1
viscosity [mPa·s], 101 kPa
Conditions | 303.15 K | 308.15 K
x1 = 0.0714 | 1.056 | 0.995
x1 = 0.1264 | 1.092 | 1.023
x1 = 0.1965 | 1.139 | 1.06
x1 = 0.2605 | 1.183 | 1.095
x1 = 0.3365 | 1.237 | 1.137
x1 = 0.3956 | 1.28 | 1.171
x1 = 0.4958 | 1.352 | 1.229
x1 = 0.5606 | 1.399 | 1.268
x1 = 0.6429 | 1.46 | 1.319
x1 = 0.7152 | 1.514 | 1.364
x1 = 0.7825 | 1.565 | 1.407
x1 = 0.8628 | 1.628 | 1.46
x1 = 0.9205 | 1.675 | 1.499
